row,SMILES,melting point
1,O=C(O)c1cc(S(=O)(=O)Oc2ccccc2-c2ccc(-c3c(Cc4ccccc4)oc4ccccc34)cc2)ccc1O,171 to 173 °C
2,COc1ccc2c(c1)N(Cc1ccccc1)C(=O)[C@H]1CCC[C@H]1N2C(=O)CN1C(=O)c2ccccc2C1=O (relative stereo),244 to 245 °C
3,Cc1ccn2cc(CC(=O)N3CCN(c4ccc5[nH]c(=O)ccc5c4)CC3)nc2c1,> 250 °C
4,COC(=O)c1c(CNC(=O)c2ccc(C(=O)O)cc2)ccc2c1C(C)(C)CCC2(C)C,95 to 100 °C
5,N#Cc1ccc(Oc2cccc(N)c2)cc1C#N,171 to 172 °C
6,CC(C)CC(=O)c1c(-c2ccc3cc(OCC(=O)O)cc(Br)c3c2)oc2ccccc12,140 to 142 °C
7,Clc1ccc2nc(Cl)c3ncn(-c4ccccc4Cl)c3c2c1,194 to 200 °C
8,CN(C(=O)CBr)c1ccc(Cl)cc1Cc1ccccc1,78 °C
9,COc1cc(CN2CCN(c3ccc(O)cc3)CC2)nc(-c2ccccc2)n1,166 to 167 °C
10,CC[C@@H](C1CC1)n1cc(Cl)nc(N2CCc3cc(Br)cc(Br)c32)c1=O,165 °C
11,Cc1cc(Br)ccc1-n1c(CF)nc2ccc(N)cc2c1=O,194 to 196 °C
12,CCCCCNC(=O)c1cnc(N2CCN(C(=O)c3ccccc3C(F)(F)F)CC2)s1,92 to 94 °C
13,CCOC(=O)C(=O)c1ccc(OCCCCCCc2cccc(OCc3ccccc3)c2OCc2ccccc2)cc1,39 to 42 °C
14,CCCn1c(=O)c2c(nc(C=Cc3ccc(C(=O)OC)cc3OC)n2C)n(CCC)c1=O,198 to 200 °C
15,Cn1c(CO)nc([N+](=O)[O-])c1C#N,122 to 124 °C
16,CC(C)C(=O)N(O)C(c1ccccc1)c1cc(C(C)(C)C)c(O)c(C(C)(C)C)c1 (configuration not stated),179 to 180 °C
17,CCCCSc1cc(C(=O)OC)cc(S(N)(=O)=O)c1Oc1ccccc1,122 to 123 °C
18,Nc1cc(C(=O)O)cc(OCc2ccsc2)c1-c1ccccc1,139 to 140 °C
19,Cc1nc2sccn2c1C1=NNC(=O)CO1,274 to 275 °C
20,O=C(Nc1c([N+](=O)[O-])cnn1-c1c(Cl)cc(C(F)(F)F)c(Cl)c1Cl)C(F)(F)F,136 to 137 °C
21,Cc1nc2cccc3n(CC4CCN(S(=O)(=O)C(F)(F)F)CC4)c(=O)c1n23,150 to 152 °C
22,Cn1ccc(NC(=O)c2cc(C#N)cc(C(F)(F)F)n2)n1,190 °C
23,COCOc1nn(-c2ccccc2)cc1/C=C/c1nc(N2CCOCC2)sc1C,162 to 164 °C
24,CCN(CC)C(=O)COc1ccccc1C(O)(CC)c1cccc(Cl)c1 (configuration not stated),93 to 94 °C
25,Nc1ccc2nc(-c3ccccc3)oc2n1,210 °C

row,SMILES,melting point
1,CC(C)CCCC(=O)OC1c2ccccc2C(=O)N1c1ccc2ccc(Br)nc2n1 (configuration not stated),136 °C
2,COc1ccc(-n2nnnc2C(F)(F)F)c(OC)c1CBr,89.5 to 90 °C
3,CN(C)CC1=C(Nc2ccccc2)CC(C)(C)CC1=O,111 to 112 °C
4,CN1C(=O)CCC(C)(C)c2cc([N+](=O)[O-])ccc21,115 °C
5,CCc1cnc(Nc2ccccn2)s1,113 °C
6,COC(=O)c1ccc(Cl)c(O)c1,100 to 101 °C
7,COc1ccc(C(=O)CCCCCl)cc1S(=O)(=O)Cl,69 to 70 °C
8,Nc1ccc2c(c1)CN1CC(=O)NC1=N2,> 275 °C
9,CC(C)=Cc1ccc(-c2ccc(C(CC3CCOCC3)c3ccc(S(=O)(=O)C4CC4)cc3)[nH]2)nc1 (configuration not stated),114 to 116 °C
10,Cc1n[nH]c(-c2ccccc2)c1-c1ccncc1,212 to 214 °C
11,CCOC(=O)CN1CCN(C2=Nc3ccccc3Oc3ccc(Cl)cc32)CC1,123 to 124 °C
12,C=CC(=O)NCc1cc(C)c(OCC2CO2)c(C)c1 (configuration not stated),90 to 92 °C
13,Cc1cc(F)cc(-c2ccc3c(c2)C2(CCCCC2)C(=O)N3)c1,180 to 182 °C
14,O=C(O)Cn1c(=O)c2ccccc2n(CCCN2CCC(OC(c3ccccc3)c3ccccc3)CC2)c1=O,170 to 172 °C
15,COc1cnc(NS(=O)(=O)c2cccc(Cl)c2Cl)c(OC)n1,138 to 139 °C
16,Cc1c(C)c2c3c(cc(C)c2[nH]c1=O)CC(CN=[N+]=[N-])O3 (configuration not stated),187 to 189 °C
17,CCCCN1C(=O)NC(Cc2ccc(C#N)cc2)C1=O (configuration not stated),136 °C
18,Cc1cc(-c2cc(C(F)(F)F)nn2-c2ccc(S(C)(=O)=O)cc2)ccc1-c1cocn1,148 to 150 °C
19,Nc1ccc(CS(=O)(=O)NC2CCCCC2)cc1,141 to 143 °C
20,Cn1nc(C(F)(F)F)c(C=O)c1O,116 to 118 °C
21,CNC(=O)NS(=O)(=O)c1ccccc1OCCCl,218 to 222 °C
22,Cc1c(C(=O)Cl)ccc(S(C)(=O)=O)c1-c1ccon1,85 to 88 °C
23,CC(NC(=O)Cc1cc(F)cc(F)c1)C(=O)NC1C(=O)NCc2cc(F)ccc21 (configuration not stated),195 to 200 °C
24,CCCCCOc1ccc(C#N)cc1-c1cc(C(=N)Nc2cccc(C(F)(F)F)c2)ccc1OCCCCC,74 to 75 °C
25,Cc1ccc([C@@H](O)[C@H](Br)C(=O)N2C(=O)O[C@H](c3ccccc3)[C@@H]2C)cc1,139 °C

row,SMILES,melting point
1,Cc1c(C2CCC(c3ccccc3)(N(C)C)CC2)n(CC(O)CN(C)C)c2ccccc12 (configuration not stated),54 to 57 °C
2,CC1(C)Oc2ccc(C#N)cc2[C@@H](NC(=O)CCl)[C@@H]1O (relative stereo),196 to 197 °C
3,CCOC(=O)c1cn(C2CCCCC2)c2cc(C#Cc3cc(Cc4cnc(N)nc4N)cc(OC)c3OC)ccc2c1=O,228 to 230 °C
4,CCCc1ccc(OC)c(-c2csc(N)n2)c1,84 °C
5,CC(C)(C)OC(=O)Cn1cccc(NC(=O)OCc2ccccc2)c1=O,88 to 90 °C
6,CCCCc1oc2ccccc2c1-c1ncc(-c2ccc3c(Br)c(OCC#N)ccc3c2)o1,144 to 146 °C
7,CC(=O)Nc1c(C#N)cnn1-c1c(F)c(F)c(C(F)(F)F)c(F)c1F,153 to 154 °C
8,COc1cc2c(cc1OC)=C1C(C#N)SC(=N)N1CC=2 (configuration not stated),229 to 230 °C
9,CC(O)/C=C/c1ccc(-c2ccccc2)cc1 (configuration not stated),138 to 139 °C
10,COC(=O)CN(C)c1nc(-c2ccc(Br)cc2)c(C=O)s1,105 to 106 °C
11,COc1cc2cc3c(Nc4ccc(Sc5nccn5C)c(Cl)c4)c(C#N)cnc3cc2cc1OCCN1CCOCC1,> 300 °C
12,O=C1CCC(Cc2ccccc2Cl)CC1,48 °C
13,CCOC(=O)c1cnc2c3cc(NS(C)(=O)=O)ccc3ncn2c1=O,310 to 312 °C
14,CCS(=O)(=O)n1cc(C(=O)c2ccn3c2CSC3c2cccnc2)c2ccc(-c3ccc(F)cc3)cc21 (configuration not stated),132 °C
15,C[C@]12C=CC(=O)N[C@@H]1CCc1cc(-c3cccc([N+](=O)[O-])c3)ccc12,205 to 206 °C
16,CCc1nc2c(cnn2CC)c(NC2CCOCC2)c1CNC(=O)c1cccc(C(=O)NCc2cc(Cl)cc(-c3cccc(CN4CCCN(C)CC4)c3)c2)c1,111 to 113 °C
17,Cc1noc(C)c1S(=O)(=O)n1c(=O)oc2ccccc21,133 to 135 °C
18,CCOC(=O)CCCCn1cnc2ccncc21,45 to 47 °C
19,CC1CCN(c2cc(-c3ncccn3)nc(Cl)c2-c2c(F)cccc2Cl)CC1,129 °C
20,C#CCN1C(=O)COc2cc(F)c(N3C(=O)C4C5CC5CN4C3=O)cc21 (configuration not stated),217 to 219 °C
21,CC(C)C1Cc2cnc3c(c2C1(O)CCN)CCO3 (configuration not stated),142 to 143 °C
22,Cc1ccc(S(=O)(=O)n2cc(CO)nc2C)cc1,140 to 143 °C
23,NC(=O)c1c(I)cc(I)c(CCC(=O)O)c1I,> 280 °C
24,CCCN1CC(C)=C(C)C2=C1N1CN(OC)C=C1C=N2,91 to 92.5 °C
25,O=C(O)COc1c(Br)cc2oc(C(=O)c3ccccc3)cc2c1Br,179 to 181 °C

row,SMILES,melting point
1,CC(=O)NCc1ccc(CN2CCN(c3ncc([N+](=O)[O-])s3)CC2)cc1,151 to 152 °C
2,CSc1cc2ncnc(Nc3cccc(C)c3)c2cc1[N+](=O)[O-],230 to 231 °C
3,Clc1ccc(-c2cc(Cl)n3nccc3n2)cc1,133 to 135 °C
4,Cn1ccc(-c2[nH]nc3c2C(=O)c2c(NC(=O)NN4CCOCC4)cccc2-3)c1,301 °C
5,CC(=O)N1CCc2cc(CC(C)NCCOc3ccccc3OCC(F)(F)F)cc(C#N)c21 (configuration not stated),57 to 59 °C
6,O=C(O)C(CC1CCCC1)c1ccc([N+](=O)[O-])cc1 (configuration not stated),119 to 125 °C
7,CCOc1ccc(-c2nc(-c3cc(C(=O)OC)c4oc(C)cc4c3)cs2)cc1OCC,144 to 145 °C
8,CC1ON(C)C(=O)C1=Cc1cc(C(C)(C)C)c(O)c(C(C)(C)C)c1 (configuration not stated),147 to 150 °C
9,NC(=O)C1CCN(c2c(Br)cncc2-c2ccccc2)CC1,220 to 222 °C
10,COC(=O)c1sc(-c2ccccc2)c(Br)c1O,85 to 87 °C
11,CCOC(=O)C(=O)Nc1cc(OC)c(OC)cc1[N+](=O)[O-],163 °C
12,CN(C(=O)c1cccc2ccccc12)[C@H](Cc1ccc(C(F)(F)F)cc1)[C@@H](O)c1ccc(F)cc1 (racemic),196 to 197 °C
13,CC(=NOCC(=O)O)c1ccc(Cl)c(Cl)c1,128 to 129 °C
14,O=c1c(Br)cc(-c2ccncn2)cn1Cc1ccccc1,189 to 192 °C
15,CCCCc1nn(-c2cc(NC(=O)CC)ccc2Cl)c(=O)n1Cc1ccc(-c2cc(CC)ccc2S(=O)(=O)NC(=O)c2ccccc2Cl)cc1,144 to 146 °C
16,CC(C)(C)OC(=O)CON=C1CC(=NOCC(=O)OC(C)(C)C)c2ccccc2-c2ccccc21,105 to 107 °C
17,CCCSc1cc(-c2c[nH]nc2C(F)(F)F)ccc1C(=O)OC,114 to 116 °C
18,O=c1cc(-c2ccc(C(F)(F)F)cc2)cc(C(F)(F)F)o1,52 °C
19,CCOC(=O)C1=C(C)NC(CSC(=O)c2ccc(N)cc2)=C(C(=O)OCC)C1c1cccc([N+](=O)[O-])c1 (configuration not stated),78 to 80 °C
20,O=S(=O)(Nc1ccc2c(OCc3nc4ccccc4s3)cccc2c1)C(F)(F)F,190 to 192 °C
21,O=C(CCC1CCCCC1)C1=C(O)CSC1=O,60 to 62 °C
22,O=C1Nc2cccnc2N(C(=O)NCCN2CCC(CNCC3CCCCC3)C2)c2ccccc21 (configuration not stated),166 to 167 °C
